In patent publication EP0531938B1, “Acrylic gel material and gel-based medical preparation for percutaneous absorption employing the same” (NITTO DENKO CORPORATION, priority 1991, dated 1993):

Assay: Solubility of drug in pressure-sensitive adhesive and in liquid component
Assay type: physicochemical
Conditions: percent by weight

Structure (SMILES): O=[N+]([O-])O[C@H]1CO[C@H]2[C@@H]1OC[C@H]2O[N+](=O)[O-] [isosorbide dinitrate]
- solubility in the pressure-sensitive adhesive (adhesive of Comparative Example 15 (95 parts 2-ethylhexyl acrylate, 5 parts acrylic acid)): 7%
- solubility in isopropyl myristate: 2.1%
